Test results as given in patent US20220168310A1, “INHIBITION OF ADENOVIRUS WITH FILOCICLOVIR” (Microbiotix, Inc., priority 2019, published 2022).
Entries after “also recorded” stand apart in the source; their conditions may differ.

What was measured:
adenovirus 8 (AdV8) = experiment: CPE reduction assay, adenovirus 8; format: cell-based, human adenovirus; conditions: unidentified adenovirus, unit not given in Table 2 (Table 1 in μM)
Description: Similar experiments were carried out with filociclovir against adenovirus 6, adenovirus 7, and adenovirus 8.

adenovirus 19 (AdV19) = experiment: Efficacy against adenovirus 19 (data not shown)
AdV6 = experiment: Delayed treatment with 10 mg/kg filociclovir after AdV6 challenge in immunosuppressed hamsters (Example 7); format: in vivo, Syrian hamsters
Description: Aliquots are allowed to equilibrate to room temperature before dosing.
Hamsters were distributed into 8 groups, 15 hamsters each (Table 5), immunosuppressed as described above, and then injected i.v. with vehicle or 4×10^10 plaque forming units (PFU) of AdV6 per kg. Filociclovir was administered p.o. at 10 mg/kg q.d., starting at one day before, or 1, 2, 3, or 4 days after AdV6 injection.
Body weights and any signs of morbidity in the hamsters were recorded daily. At 7 days post challenge, 5 hamsters from each group (designated at the start of the experiment) were sacrificed, and gross pathological observations were performed.

Human AdV6 = experiment: Low dose filociclovir against intravenously administered AdV6 in immunosuppressed hamsters (Example 6); conditions: for AdV6-induced liver damage, serum transaminase (ALT) / AdV6 replication in the liver: 5 days post challenge; for AdV6 replication in the liver: TCID50
Description: Three dose levels were tested: 1, 3, and 10 mg/kg p.o. q.d.
All hamsters were immunosuppressed using cyclophosphamide (CP) administered intraperitoneally at a dose of 140 mg/kg, and then twice weekly at a dose of 100 mg/kg. Filociclovir in powdered form was suspended in 0.4% carboxymethyl cellulose (Sigma C5678) at 0.1, 0.3, and 1.0 mg/ml and sonicated to visual homogeneity. Filociclovir was made up once weekly, aliquoted into daily portions, and stored at 4° C. Aliquots were allowed to equilibrate to room temperature before dosing.
Hamsters were distributed into 7 groups, 15 hamsters/group (see Table 4), immunosuppressed as described above, and injected i.v. with vehicle (Groups 1-2) or 4×10^10 PFU/kg of AdV6 (Groups 3-7). Groups 1 and 3 received drug vehicle (p.o. q.d.), Groups 2 and 6 received 10 mg/kg filociclovir (p.o. q.d.), Group 4 received 3 mg/kg filociclovir (p.o. q.d.), Group 5 received 1 mg/kg filociclovir (p.o. q.d.), and Group 7 received cidofovir (one dose of 37 mg/kg, followed by 20 mg/kg doses 3 times weekly). For all groups, drug administration started 1 day before challenge, and continued according to the schedule above for the duration of the study.
The body weights and any signs of morbidity of the animals were monitored and recorded daily. At 5 days post challenge, 5 hamsters (designated at the start of the experiment) from each group were sacrificed, and gross pathological observation was performed. Serum and liver were collected and virus burden in liver was determined by TCID50 assay and the serum was analyzed for transaminase levels. The remaining 10 hamsters were sacrificed at 14 days post challenge. Hamsters that became moribund before Day 14 were sacrificed as needed. In addition to the animals judged moribund by observation, we sacrificed all hamsters that lost more than 20% of their original body weight. For all animals, liver tissue was preserved in formalin for histopathological examination.

adenovirus 3 (AdV3) = experiment: Efficacy against adenovirus 3 (data not shown)
[1] = 10 mg/kg q.d., listed as filociclovir

Nc1nc2c(ncn2/C=C2/CC2(CO)CO)c(=O)[nH]1 [FCV, 2-amino-9-{(Z)-[2,2-bis(hydroxymethyl)cyclopropylidene]methyl}-3,9-dihydro-6H-purin-6-one]
EC50 (adenovirus 8 (AdV8)): 2.45 µM | treat or prevent infection (adenovirus 19 (AdV19)): effective | morbidity and mortality (survival) (AdV6; 10 mg/kg p.o. q.d. started day −1, +1, +2, +3 (p=0.0005) or +4 (p=0.0023) vs AdV6+Vehicle, listed as filociclovir): efficacious; also recorded: effective to prevent morbidity and mortality | prevention of pathology caused by intravenous AdV6 infection (AdV6; 10 mg/kg p.o. q.d., up to 4 days post-infection): safe and effective | AdV6 replication in the liver (AdV6; 10 mg/kg, start 4 days post challenge): inhibits AdV6 replication in the liver | liver pathology, transaminase (ALT) levels (AdV6; 10 mg/kg, start up to 4 days post challenge, day +4 p=0.1452): mitigates liver pathology | mortality (Human AdV6; 1 mg/kg p.o. q.d., p=0.0449): moderate yet significant | AdV6-induced liver damage, serum transaminase (ALT) (Human AdV6; 1 mg/kg q.d., listed as Filociclovir): ineffective | AdV6-induced liver damage, serum transaminase (ALT) (Human AdV6; 1 mg/kg q.d., listed as filociclovir): largely ineffective | body weight loss (Human AdV6; 1 mg/kg, listed as Filociclovir): not efficacious | body weight loss (Human AdV6; 1 mg/kg, listed as filociclovir): unable to mitigate weight loss | mortality (Human AdV6; 3 mg/kg q.d. p.o.): completely prevented mortality | AdV6 replication in the liver (Human AdV6; 3 mg/kg q.d. p.o., listed as filociclovir): suppressed virus replication to an intermediate level; also recorded: inhibits AdV6 replication in the liver | AdV6-induced liver damage, serum transaminase (ALT) (Human AdV6; 3 mg/kg, p=0.0419, listed as Filociclovir): mitigated the pathology | AdV6-induced liver damage, serum transaminase (ALT) (Human AdV6; 3 mg/kg, p=0.0419, listed as filociclovir): moderate yet significant effect | body weight loss (Human AdV6; 3 mg/kg, listed as Filociclovir): moderately efficacious | body weight loss (Human AdV6; 3 mg/kg, listed as filociclovir): partially reversed | mortality (Human AdV6; 10 mg/kg q.d. p.o.): completely prevented mortality | AdV6 replication in the liver (Human AdV6; [1]): inhibits AdV6 replication in the liver | AdV6-induced liver damage, serum transaminase (ALT) (Human AdV6; 10 mg/kg q.d., listed as Filociclovir): mitigated the pathology | AdV6-induced liver damage, serum transaminase (ALT) (Human AdV6; [1]): prevented AdV6-induced liver damage | body weight of uninfected hamsters (Human AdV6; 10 mg/kg, uninfected): did not result in body weight loss | body weight loss (Human AdV6; 10 mg/kg, listed as Filociclovir): completely prevented body weight loss | body weight loss (Human AdV6; 10 mg/kg, listed as filociclovir): completely reversed | toxic effects in treated hamsters (Human AdV6; 1, 3, 10 mg/kg p.o. q.d.): No toxic effects were observed | treatment-related deaths (Human AdV6; AdV6+1 mg/kg group (9 in AdV6+Vehicle)): 5 | hamsters with mottled liver and enlarged gall bladder (Human AdV6; AdV6+1 mg/kg, Day 5 sacrifice (4 in AdV6+Vehicle)): 3 | treat or prevent infection (adenovirus 3 (AdV3)): effective
